Where no end group is shown, it is not given here.

Results on 2 substances are retold here after patent US5223482A, “Recombinant Alzheimer's protease inhibitory amyloid protein and method of use” (Scios Nova Inc., priority 1989, dated 1993).

Type in all cases: biochemical
In one assay the target is chymotrypsin. The experiment in a line: Kinetics of inhibition (Ki) of the protease inhibitor for chymotrypsin. Here is the method: (§1) The analogs of the present protease inhibitors are constructed from oligonucleotides containing the specific codons encoding the desired amino acid at this location, using site-specific mutagenesis techniques as are known in the art. The desired activities of the analogs thus constructed are assayed using the appropriate enzyme, for example, either trypsin, chymotrypsin or elastase as the standard in one of the respective assays using, for example, the trypsin or chymotrypsin assays described in Tan, N. H. Biochem (1977) 16:1531-1541 and the elastase assays Barrett, A. J. (1981) in Methods in Enzymology vol. 80, L. Lorand ed., Academic Press, New York. The activity of the analogs may be compared with that of the natural protease inhibitor of the invention.

For assay [1], the target named is trypsin. The experiment in a line: Kinetics of inhibition (Ki) of the protease inhibitor for trypsin. As for the experimental part: as §1
The subject of assay [2] is trypsin. The experiment in a line: Trypsin inhibition assay (hydrolysis of N-benzoyl-D-arginine-p-nitroaniline, release of pNA). Conditions: HPLC peaks of the trypsin affinity column eluate. As for the experimental part: All 8 oligonucleotides encoding either the phoA or ompA fusions were mixed together and treated with ligase. […] The ligated constructs were then ligated into the NdeI-HindIII sites of the vector pTRP233. The ligated vectors were transfected into E. coli strain MC1061 and Amp^R colonies selected. […] Miniprep DNA was used to transfect strains W3110 and JE5505. Small scale cultures of each of the three strains were grown and induced with IAA overnight. Culture supernatants were examined for trypsin inhibitory acitvity. Trypsin is assayed for its ability to hydrolyze the synthetic substrate N-benzoyl-D-arginine-p-nitroaniline to release p-nitroaniline (pNA). The release of pNA as a function of time is easily monitored in a spectrophotomer and can be quantitated to measure trypsin activity. The inhibitor is detected in this assay by virtue of its ability to bind to trypsin and prevent hydrolysis of the substrate by trypsin. Inhibitory activity wad detected in the culture medium for both ompA and phoA constructs in JE5505 but not W3110 or MC1601. Expression levels appeared to be higher with the phoA construct and so only this construct was used for subsequent experiments.

Broadly, the Ki is a dissociation constant, usually derived from enzyme kinetics or from competition with a known ligand. Higher therefore signals a looser hold on the target. Regarding “natural protease inhibitor: 57 amino acid Kunitz-type protease inhibitor, residues 289 through 345 of the λAPCP168i4 β-amyloid-related protein (EVCSEQAETGPCRAMISRWYFDVTEGKCAPFFYGGCGGNRNNFDTEEYCMAVCGSAM; Kunitz inhibitor domain; UniProt P05067 289-345, looked up, fragment)”, the values for the Ki on chymotrypsin and at trypsin [1] were 8.5 nM and 3 nM, respectively.

With “peak 4: major HPLC peak of the purified inhibitor; mass consistent with full length A4i with 3 disulfide bridges (EVCSEQAETGPCRAMISRWYFDVTEGKCAPFFYGGCGGNRNNFDTEEYCMAVCGSAM; disulfide (positions not given here); UniProt P05067 289-345, looked up, fragment)”, the “activity in the trypsin inhibition assay” value in the assay with trypsin [2] is recorded as “active”.
